How the values were obtained:
[1] = target: T1, Human rhinovirus A protease (Human rhinovirus sp., UniProt Q4U254); assay: Antiviral activity against human rhinovirus-14 (HRV-14) 3C protease using enzyme assay; assay type: functional, rhinovirus B14
T1 sequence (Q4U254 whole entry): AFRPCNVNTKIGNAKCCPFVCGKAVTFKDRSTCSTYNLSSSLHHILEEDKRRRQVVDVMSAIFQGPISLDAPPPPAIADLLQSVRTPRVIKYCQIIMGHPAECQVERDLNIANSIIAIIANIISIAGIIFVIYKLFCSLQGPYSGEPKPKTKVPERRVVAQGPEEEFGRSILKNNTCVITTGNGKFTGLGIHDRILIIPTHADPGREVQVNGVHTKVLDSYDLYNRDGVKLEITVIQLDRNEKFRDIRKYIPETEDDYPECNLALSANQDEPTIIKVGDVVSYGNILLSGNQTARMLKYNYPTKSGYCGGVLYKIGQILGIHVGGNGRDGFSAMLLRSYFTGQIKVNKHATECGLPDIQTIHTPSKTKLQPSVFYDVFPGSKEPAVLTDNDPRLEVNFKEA

HeLa [2] = assay: Cytotoxicity against HeLa cells was determined by using XTT cytotoxicity assay; assay type: functional; settings: Homo sapiens, read-out: TC50 (the source's name)
rhinovirus B14 = assay: (§1) Antiviral activity against human rhinovirus-14 (HRV-14) in HeLa-cells using cell assay; assay type: functional, organism-based, human rhinovirus type 14; settings: Rhinovirus B
HeLa [3] = assay: Antiviral activity against human rhinovirus-16 (HRV-16) in HeLa-cells using cell assay; assay type: functional, cell-based
HeLa [4] = assay: as §1; assay type: functional, cell-based
[5] = target: T1, Human rhinovirus A protease; assay: Antiviral activity against human rhinovirus-14 (HRV-14) 3C protease using enzyme assay; inactive; assay type: functional, rhinovirus B14
HeLa [6] = assay: Antiviral activity against human rhinovirus-16 (HRV-16) in HeLa-cells using cell assay; inactive; assay type: functional, cell-based

CCCC(NC(=O)C(Cc1ccccc1)NC(=O)[C@@H](NC(=O)OC(C)C)C(C)C)C(=O)C(=O)N[C@@H](C)c1ccccc1 (some centres not stated)
Ki [1]: 0.5 µM | CC50 (HeLa [2]): 62 µM | EC50 (rhinovirus B14): 1 µM | EC50 (HeLa [3]): 10.1 µM

CCC[C@H](NC(=O)[C@H](Cc1ccccc1)NC(=O)[C@@H](NC(=O)OC(C)C)C(C)C)C(=O)C(=O)N[C@@H](C)c1ccccc1
IC50 [1]: 0.17 µM | Ki [1]: 0.17 µM | CC50 (HeLa [2]): > 100 µM | EC50 (rhinovirus B14): 0.85 µM | EC50 (HeLa [3]): ~10 µM

CCC[C@H](NC(=O)[C@H](Cc1ccccc1)NC(=O)[C@@H](NC(=O)OC(C)C)C(C)C)C(=O)C(=O)N[C@H](C)c1ccccc1
Ki [1]: 6.5 µM | EC50 (rhinovirus B14): 11.1 µM

CCC[C@H](NC(=O)[C@H](Cc1ccccc1)NC(=O)[C@@H](NC(=O)OC(C)C)C(C)C)C(=O)C(=O)N[C@@H](C)C1CCCCC1
Ki [1]: 6.5 µM | CC50 (HeLa [2]): 54.6 µM | EC50 (rhinovirus B14): > 20 µM

CCCC(NC(=O)C1CCCN1C(=O)[C@@H](NC(=O)OC(C)C)C(C)C)C(=O)C(=O)N[C@@H](C)c1ccccc1 (some centres not stated)
Ki [1]: 17.4 µM | CC50 (HeLa [2]): > 100 µM | EC50 (rhinovirus B14): 10.4 µM | EC50 (HeLa [3]): 43.3 µM

CCC[C@H](NC(=O)[C@H](Cc1ccccc1)NC(=O)[C@@H](NC(=O)OC(C)(C)C)C(C)C)C(=O)N[C@@H](C)c1ccccc1
Ki [1]: 7.4 µM | CC50 (HeLa [2]): > 100 µM | EC50 (rhinovirus B14): > 20 µM

CCC[C@H](NC(=O)[C@H](Cc1ccccc1)NC(=O)[C@@H](NC(=O)OC(C)C)C(C)C)C(=O)C(=O)NCc1ccccc1
Ki [1]: 4.6 µM | CC50 (HeLa [2]): > 100 µM | IC50 (HeLa [4]): 2.7 µM | EC50 (rhinovirus B14): 5.3 µM

CCC[C@H](NC(=O)[C@H](Cc1ccccc1)NC(=O)[C@@H](NC(=O)OC(C)(C)C)C(C)C)C(=O)NC[C@H](C)c1ccccc1
Ki [1]: 29.1 µM | CC50 (HeLa [2]): > 100 µM | EC50 (rhinovirus B14): > 15 µM

CCCC(NC(=O)C(Cc1ccc(F)cc1)NC(=O)[C@@H](NC(=O)OC(C)C)C(C)C)C(=O)C(=O)N[C@@H](C)c1ccccc1 (some centres not stated)
Ki [1]: 1.36 µM | CC50 (HeLa [2]): > 100 µM | EC50 (rhinovirus B14): 2.1 µM | EC50 (HeLa [3]): 37.3 µM

CCCC(NC(=O)[C@@H]1[C@H]2CC[C@H](F)[C@H]2CN1C(=O)[C@@H](NC(=O)OC(C)C)C(C)C)C(=O)C(=O)N[C@@H](C)c1ccccc1 (some centres not stated)
Ki [1]: 5.5 µM | CC50 (HeLa [2]): 82 µM | EC50 (rhinovirus B14): 5.8 µM

CCC[C@H](NC(=O)[C@H](Cc1ccccc1)NC(=O)[C@@H](NC(=O)OC(C)(C)C)C(C)C)C(=O)C(=O)N[C@H](C)c1ccccc1
Ki [1]: 0.71 µM | CC50 (HeLa [2]): 30.3 µM | EC50 (rhinovirus B14): 1.3 µM

CCCC(NC(=O)C1(NC(=O)[C@@H](NC(=O)OC(C)C)C(C)C)CCCC1)C(=O)C(=O)N[C@@H](C)c1ccccc1 (some centres not stated)
Ki [5]: Not Active | CC50 (HeLa [2]): > 100 µM | EC50 (rhinovirus B14): > 20 µM | EC50 (HeLa [6]): Not Active

CCCC(NC(=O)[C@@H]1[C@H]2CCC[C@H]2CN1C(=O)[C@@H](NC(=O)OC(C)C)C(C)(C)C)C(=O)C(=O)N[C@@H](C)c1ccccc1 (some centres not stated)
CC50 (HeLa [2]): 57.8 µM | EC50 (rhinovirus B14): 7.7 µM | EC50 (HeLa [3]): 25.7 µM

CCCC(NC(=O)[C@@H]1[C@H]2CC[C@H](F)[C@H]2CN1C(=O)[C@@H](NC(=O)OC(C)C)C(C)(C)C)C(=O)C(=O)N[C@@H](C)c1ccccc1 (some centres not stated)
Ki [1]: 9.8 µM | CC50 (HeLa [2]): 60.4 µM | EC50 (rhinovirus B14): 10 µM

CCCC(NC(=O)[C@@H]1[C@H]2CCC[C@H]2CN1C(=O)[C@@H](NC(=O)OC(C)C)C(C)C)C(=O)C(=O)N[C@@H](C)c1ccccc1 (some centres not stated)
Ki [1]: 3 µM | CC50 (HeLa [2]): 65.4 µM | EC50 (rhinovirus B14): 2.2 µM | EC50 (HeLa [3]): ~10 µM

— ChEMBL document CHEMBL1136293, “Synthesis and evaluation of tripeptidyl alpha-ketoamides as human rhinovirus 3C protease inhibitors” (Bioorg Med Chem Lett, 2003)
